Row | Compound | logP
1 | CC(C)C(=O)Oc1c(I)cc(C#N)cc1I | 4.6
2 | COc1c(I)cc(C#N)cc1I | 4.1
3 | CCCCN(CCCC)SN(C)C(=O)Oc1cccc2c1OC(C)(C)C2 | 5
4 | NC(=S)c1cc(I)c(O)c(I)c1 | 3.2
5 | CSc1c(C)cc(O)cc1C | 2.8
6 | N#Cc1cc(I)c(O)c(I)c1 | 3.8
7 | CC(=O)Oc1c(I)cc(C#N)cc1I | 3.8
8 | O=C(O)c1cc(I)c(O)c(I)c1 | 3.7
9 | CCCCCCCC(=O)Oc1c(I)cc(C#N)cc1I | 6.8
10 | Cc1cc(I)c(O)c(I)c1 | 4.2
11 | CS(=O)(=O)c1c(F)c(F)c(F)c(F)c1F | 1.2
12 | Fc1c(F)c(F)c(C(F)(F)F)c(F)c1F | 3
13 | N#Cc1cc(I)cc(I)c1O | 4.1
14 | N#Cc1cc(I)c(O)c([N+](=O)[O-])c1 | 2.7
15 | CSc1ccc(O)cc1C | 2.3
16 | COc1ccccc1[N+](=O)[O-] | 2
17 | O=C(O)c1cc(Cl)ccc1O | 2.9
18 | COC(=O)c1cc(I)c(O)c(I)c1 | 3.9
19 | Cc1cc(O)ccc1Cl | 3.1
20 | CNC(=O)Oc1c(I)cc(C#N)cc1I | 3.3
21 | Fc1c(F)c(F)c(S)c(F)c1F | 2
22 | COc1c(I)cc(C#N)cc1[N+](=O)[O-] | 2.9
23 | O=[N+]([O-])c1ccc(Cl)c(O)c1 | 2.4
